{"source": "patent US8835392B2", "about": "“Mimetic peptides and the use thereof in the form of 20S, 26S and immunoproteasome inhibitors” (Technische Universität, priority 2005, dated 2014)", "key": {"[1]": {"tested_on": "T1, 20S proteasome", "T1 construct": "Proteasomes were isolated from red blood cells; from tissue; host or cells: red blood cells", "assay": "Inhibition of the different proteasomal activities, summary statements", "format": "biochemical", "details": "for which proteasomal activities are inhibited (site selectivity): isolated proteasomes, specific substrates", "procedure": "The specific inhibition of a single catalytic site is of specific interest for the development of drugs. Thus, the inhibition of the different proteasomal activities of the proteasome was analysed (see also example 6). The different cleavage-preferences of the proteasome were determined by the specific substrate for the hydrophobic (chymotrypsin-like), the trypsine-like and the caspase-like activities of isolated proteasomes.\n(§1) Suc-LLVY-AMC, Z-VGR-AMC and LLE-AMC (BACHEM, Calbiochem) was used, in order to determine the chymotrypsin-like, trypsin-like or caspase-like (post-acidic)-activities of the proteasome. Substrate was incubated with proteasome at 37° C. in assay-buffer (20 mM Tris/Cl, pH 7.2, 1 mM EDTA, 1 mM DTT) for one hour. 100 ng proteasome was pre-incubated with 0.01-10 μM of the inhibitor for […]. The reaction was started by the addition of substrate (50 μM). The AMC as released was detected using fluorescence emission at 460 nm (excitation at 390 nm) using a TECAN-fluorimeter. The activity was calculated in fluorescence-units. The inhibition is depicted by IC50-values.\n(§2) The effects thereof were compared with the one of the commonly used proteasomal inhibitor 3 (MG132). The chymotrypsin-like (Suc-LLVY-AMC), the trypsin-like (Bz-VGR-AMC), and the caspase-like (Z-LLE-AMC)-activities of 20S proteasomes were determined following incubation for one hour at 37° C."}, "[2]": {"target": "T2, 20S proteasome β5 chymotrypsin-like activity (GLL-MCA) (Homo sapiens, UniProt P20618+P28074)", "T2 construct": "Proteasomes were isolated from red blood cells; from tissue; host or cells: red blood cells", "assay": "Protease assay, chymotrypsin-like activity of isolated 20S proteasomes (GLL substrate)", "format": "biochemical", "details": "isolated 20S proteasome; GLL-MCA 50 μM; 15 min pre-incubation; read-out: IC50 β5 Chym.-like (L)", "procedure": "(§3) Proteasomes were isolated from red blood cells. Cells were lysed with DTT (1 mM), and the stroma-free supernatant was loaded on DEAE-sepharose (Toyopearls). Proteasome was eluted with an NaCl-gradient in TEAD (20 mM TrisCl pH 7.4, 1 mM EDTA, 1 mM azide, 1 mM DTT) of 100 to 300 mM NaCl. Proteasome was concentrated using ammonium sulfate-precipitation (between 40 and 70% saturation) and was separated in a 10-40% sucrose-gradient through centrifugation at 40.000 rpm for 16 hours (SW40; L7, Beckman & Coulter). Finally, the proteasomes were purified on a MonoQ-column and eluted with an NaCl-gradient at about 280 mM NaCl. The fractions containing purified proteasome were dialysed against 50 mM NaCl in TEAD and stored on ice. The purity was determined using SDS-PAGE.\nas §1\n(§4) The IC50-values form the inhibition of the proteasome were calculated at increasing concentrations of the inhibitor. The samples were pre-incubated for 15 min in ice. The assay was started through the addition of 50 μM of one of the following fluorogenic peptide substrates:\n(§5) The release of MCA was determined at 460 nm emission (excitation 390 nm). The IC50-values as calculated for MG132 served as controls."}, "[3]": {"target": "T3, 20S proteasome β1 caspase-like activity (LLE-MCA) (Homo sapiens, UniProt P28072+Q99436)", "T3 construct": "Proteasomes were isolated from red blood cells; from tissue; host or cells: red blood cells", "assay": "Protease assay, caspase-like activity of isolated 20S proteasomes", "format": "biochemical", "details": "isolated 20S proteasome; LLE-MCA 50 μM; 15 min pre-incubation; read-out: IC50 β1 Caspase-like (E)", "procedure": "as §3, §1, §2, §4, §5"}, "[4]": {"tested_on": "poly-ubiquitinylated proteins in HeLa-cells", "assay": "Accumulation of poly-ubiquitinylated proteins, Western blot", "format": "cell-based", "details": "1 μM for compound 15", "procedure": "A, HeLa-cells were cultivated were 24 hours in the presence of the inhibitor. The protein concentration was determined in accordance with the cellular lysis according to Bradford in order to normalise the proteasomal activities to the different amounts of cells. Subsequently Complete (Roche) was added to all lysates, and the proteasomal activity was determined through the hydrolysis of Suc-LLVY-AMC. B, HeLa-cells was incubated with 1 μM of compound 15 for 2, 4, 6 and 24 hours. Cells were lysed, and proteins were separated through SDS-PAGE on a 10% gel, blotted to a PVDF-membrane. The accumulation of the poly-ubiquitinylated proteins was detected in a Western blot by an anti-ubiquitine-antibody (DAKO). C, HeLa-Cells were treated with increasing concentrations of the inhibitor 15, 25, 26, 27, and 28 for 24 hours (lane 1: without inhibitor; lane 2: 10 nM; lane 3: 100 nM and lane 4: 1 μM of the given inhibitor). Cells were lysed, proteins were separated on 15% gels, and the accumulation of the poly-ubiquitinylated proteins was controlled through Western blot.\nA specific inhibition of the proteasome lead to an accumulation of poly-ubiquitinylated proteins. Indeed, the amount of poly-ubiquitinylated proteins increased during the incubation with the inhibitors. First effects were observed after 2 hours, for compound 15 (FIG. 6B) as well as for compounds 20, 22, 25 and 28 (data not shown).\n50 μg of whole-cell-lysate were separated by SDS-PAGE, and blottet onto a PVDF-membrane (Millipore). The blots were blocked by means of a 5% milk-suspension. The poly-ubiquitinylated proteins were detected by anti-ubiquitin-antibody (DAKO), and anti-rabbit, POD-labelled, as a secondary antibody (DIANOVA), and visualized through ECL."}, "[5]": {"tested_on": "caspase 3/7 activation in HeLa-cells", "assay": "Apoptosis-assay, caspase 3/7-activity (Apo-One)", "format": "cell-based", "details": "1 μM, 20 hours", "procedure": "HeLa-cells that were cultivated for 20 hours in the presence of the given inhibitor, were subsequently incubated for 2 hours with caspase-substrate (Apo-One; Promega). The activation of caspases 3/7 was measured at 538 nm (excitation at 485 nm). Treatment of the cells with TNFα or with MG132 served as control.\nFor this, 10,000 HeLa-cells pro well were seeded in a 96-well-plate, and co-cultivated for 20 hours with 1 μM of the inhibitors 7, 8, 11, 13-16, 18, 20-23 and 25-28. The induction of apoptosis was determined by measuring of the caspase 3/7-activity (Apo-One®-Assay, Promega)."}}, "note": "“Also recorded” adds a separate entry of the source. Where a SMILES comes first, the peptide text is derived from it. The star is where a group is joined. Cbz = O=C(OCc1ccccc1)*; OtBu = CC(C)(C)O*", "data": [{"smiles": "CC(C)CC(C=O)NC(=O)C(CC(=O)OC(C)(C)C)NC(=O)C(CC(C)C)NC(=O)OCc1ccccc1", "note": "(stereo not drawn) [Compound 15, Z-Leu-Asp(O^tBu)Leu-CHO] (Cbz-Leu-Asp(OtBu)-Leu-aldehyde; configuration not given here)", "values": [{"measurement": "which proteasomal activities are inhibited (site selectivity)", "setting": "[1]", "result": "inhibited all of the proteasomal hydrolytic activities"}, {"measurement": "IC50", "setting": "[1]; proteasomal activity not given, read-out: IC50-values of the most potent inhibitors", "result": "< 60", "unit": "nM"}, {"measurement": "IC50", "setting": "[2]", "result": 31, "unit": "nM"}, {"measurement": "IC50", "setting": "[3]", "result": 1790, "unit": "nM"}, {"measurement": "first effects on accumulation of poly-ubiquitinylated proteins observed after", "setting": "[4]", "result": 2, "unit": "h"}, {"measurement": "induction of apoptosis (activation of caspase 3 and 7)", "setting": "[5]", "result": "beginning apoptosis; also recorded: strong induction of apoptosis"}]}, {"smiles": "CC(C)C[C@H](NC(=O)OCc1ccccc1)C(=O)N[C@@H](CC(C)C)C(=O)N[C@@H](CC(C)C)C(=O)C(=O)Nc1ccccc1", "note": "[Compound 28]", "values": [{"measurement": "which proteasomal activities are inhibited (site selectivity)", "setting": "[1]", "result": "exclusive reduction of the chymotryptic activity"}, {"measurement": "IC50", "setting": "[3]", "result": "> 10000", "unit": "nM"}, {"measurement": "first effects on accumulation of poly-ubiquitinylated proteins observed after", "setting": "[4]", "result": 2, "unit": "h"}, {"measurement": "induction of apoptosis (activation of caspase 3 and 7)", "setting": "[5]", "result": "beginning apoptosis; also recorded: strong induction of apoptosis"}]}]}
